Results reported in US7423158B2, “Amino-5-[4-(difluoromethoxy)phenyl]-5-phenylimidazolone compounds for the inhibition of β-secretase” (Wyeth, priority 2005, dated 2008).

| melting point | SMILES |
| --- | --- |
| 36 to 39 °C | COCCCCc1cccc(C2(c3ccc(OC(F)F)cc3)N=C(N)N(C)C2=O)c1 (centres unmarked) [Example 28, 2-amino-5-[4-(difluoromethoxy)phenyl]-5-[3-(4-methoxybutyl)phenyl]-3-methyl-3,5-dihydro-4H-imidazol-4-one] |
| 172 to 174 °C | CN1C(=O)C(c2ccc(OC(F)F)cc2)(c2cccc(C3CC(=O)C3(C)C)c2)N=C1N (centres unmarked) [Example 87, 2-Amino-5-[4-(difluoromethoxy)phenyl]-5-[3-(2,2-dimethyl-3-oxocyclobutyl)phenyl]-3-methyl-3,5-dihydro-4H-imidazol-4-one] |
| 68 to 70 °C | COC(=O)CC1CC(c2cccc(C3(c4ccc(OC(F)F)cc4)N=C(N)N(C)C3=O)c2)C1 (centres unmarked) [Example 92, methyl [3-(3-{2-amino-4-[4-(difluoromethoxy)phenyl]-1-methyl-5-oxo-4,5-dihydro-1H-imidazol-4-yl}phenyl)cyclobutyl]acetate] |
| 48 to 50 °C | COCCCc1cccc(C2(c3ccc(OC(F)F)cc3)N=C(N)N(C)C2=O)c1 (centres unmarked) [Example 24, 2-Amino-5-[4-(difluoromethoxy)phenyl]-5-[3-(3-methoxypropyl)phenyl]-3-methyl-3,5-dihydro-4H-imidazol-4-one] |
| 60 to 63 °C | CN1C(=O)C(c2ccc(OC(F)F)cc2)(c2cccc(CCF)c2)N=C1N (centres unmarked) [Example 55, 2-Amino-5-[4-(difluoromethoxy)phenyl]-5-[3-(2-fluoroethyl)phenyl]-3-methyl-3,5-dihydro-4H-imidazol-4-one] |
| 46 to 48 °C | CN1C(=O)C(c2ccc(OC(F)F)cc2)(c2cccc(COCCC(F)(F)F)c2)N=C1N (centres unmarked) [Example 31, 2-amino-5-[4-(difluoromethoxy)phenyl]-3-methyl-5-{3-[(3,3,3-trifluoropropoxy)methyl]phenyl}-3,5-dihydro-4H-imidazol-4-one] |
| 70 to 72 °C | COCc1cccc(C2(c3ccc(OC(F)F)cc3)N=C(N)N(C)C2=O)c1 (centres unmarked) [Example 32, 2-amino-5-[4-(difluoromethoxy)phenyl]-5-[3-(methoxymethyl)phenyl]-3-methyl-3,5-dihydro-4H-imidazol-4-one] |
| 54 to 57 °C | CN1C(=O)C(c2ccc(OC(F)F)cc2)(c2cccc(CCCC(F)F)c2)N=C1N (centres unmarked) [Example 19, 2-Amino-5-[3-(4,4-difluorobutyl)phenyl]-5-[4-(difluoromethoxy)phenyl]-3-methyl-3,5-dihydro-4H-imidazol-4-one] |

More lines, now with the values behind:

| SMILES | melting point |
| --- | --- |
| CCCCOCc1cccc(C2(c3ccc(OC(F)F)cc3)N=C(N)N(C)C2=O)c1 (centres unmarked) [Example 33, 2-amino-5-[3-(butoxymethyl)phenyl]-5-[4-(difluoromethoxy)phenyl]-3-methyl-3,5-dihydro-4H-imidazol-4-one] | 37 to 39 °C |
| CN1C(=O)C(c2ccc(OC(F)F)cc2)(c2cccc(COCC(F)(F)C(F)F)c2)N=C1N (centres unmarked) [Example 39, 2-amino-5-[4-(difluoromethoxy)phenyl]-3-methyl-5-{3-[(2,2,3,3-tetrafluoropropoxy)methyl]phenyl}-3,5-dihydro-4H-imidazol-4-one] | 48 to 50 °C |
| CN1C(=O)C(c2ccc(OC(F)F)cc2)(c2cccc(C3CC(O)C3)c2)N=C1N (centres unmarked) [Example 89, 2-Amino-5-[4-(difluoromethoxy)phenyl]-5-[3-(3-hydroxycyclobutyl)phenyl]-3-methyl-3,5-dihydro-4H-imidazol-4-one] | 186 to 190 °C |
| CN1C(=O)C(c2ccc(OC(F)F)cc2)(c2cccc(COCCF)c2)N=C1N (centres unmarked) [Example 30, 2-Amino-5-[4-(difluoromethoxy)phenyl]-5-{3-[(2-fluoroethoxy)methyl]phenyl}-3-methyl-3,5-dihydro-4H-imidazol-4-one] | 40 to 43 °C |
| CN1C(=O)C(c2ccc(OC(F)F)cc2)(c2cccc(COC(CF)CF)c2)N=C1N (centres unmarked) [Example 37, 2-amino-5-[4-(difluoromethoxy)phenyl]-5-(3-{[2-fluoro-1-(fluoromethyl)ethoxy]methyl}phenyl)-3-methyl-3,5-dihydro-4H-imidazol-4-one] | 46 to 50 °C |
| C=C(F)CCc1cccc(C2(c3ccc(OC(F)F)cc3)N=C(N)N(C)C2=O)c1 (centres unmarked) [Example 17, 2-Amino-5-[4-(difluoromethoxy)phenyl]-5-[3-(3-fluorobut-3-en-1-yl)phenyl]-3-methyl-3,5-dihydro-4H-imidazol-4-one] | 58 to 60 °C |
| CCOCc1cccc(C2(c3ccc(OC(F)F)cc3)N=C(N)N(C)C2=O)c1 (centres unmarked) [Example 35, 2-amino-5-[4-(difluoromethoxy)phenyl]-5-[3-(ethoxymethyl)phenyl]-3-methyl-3,5-dihydro-4H-imidazol-4-one] | 45 to 48 °C |
| C=CCCc1cc(C2(c3ccc(OC(F)F)cc3)N=C(N)N(C)C2=O)ccc1F (centres unmarked) [Example 84, 2-Amino-5-(3-but-3-en-1-yl-4fluorophenyl)-5-[4-(difluoromethoxy)phenyl]-3-methyl-3,5-dihydro-4H-imidazol-4-one] | 55 to 58 °C |
| CN1C(=O)C(c2ccc(OC(F)F)cc2)(c2cccc(COCC3CC3)c2)N=C1N (centres unmarked) [Example 34, 2-amino-5-{3-[(cyclopropylmethoxy)methyl]phenyl}-5-[4-(difluoromethoxy)phenyl]-3-methyl-3,5-dihydro-4H-imidazol-4-one] | 47 to 50 °C |
| CCOC(=O)C=C1CC(c2cccc(C3(c4ccc(OC(F)F)cc4)N=C(N)N(C)C3=O)c2)C1 (centres unmarked) [Example 90, Ethyl [3-(3-{2-Amino-4-[4-(difluoromethoxy)phenyl]-1-methyl-5-oxo-4,5-dihydro-1H-imidazol-4-yl}phenyl)cyclobutylidene]acetate] | 78 to 80 °C |
| CN1C(=O)C(c2ccc(OC(F)F)cc2)(c2cccc(OCCCCF)c2)N=C1N (centres unmarked) [Example 64, 2-amino-5-[4-(difluoromethoxy)phenyl]-5-[3-(4-fluorobutoxy)phenyl]-3-methyl-3,5-dihydro-4H-imidazol-4-one] | 139 to 140 °C |
| CCCOCc1cccc(C2(c3ccc(OC(F)F)cc3)N=C(N)N(C)C2=O)c1 (centres unmarked) [Example 36, 2-amino-5-[4-(difluoromethoxy)phenyl]-3-methyl-5-[3-(propoxymethyl)phenyl]-3,5-dihydro-4H-imidazol-4-one] | 40 to 43 °C |
| CCCNC(=O)c1cccc(C2(c3ccc(OC(F)F)cc3)N=C(N)N(C)C2=O)c1 (centres unmarked) [Example 29, 3-{2-Amino-4-[4-(difluoromethoxy)phenyl]-1-methyl-5-oxo-4,5-dihydro-1H-imidazol-4-yl}-N-propylbenzamide] | 93 to 96 °C |
| CN1C(=O)C(c2ccc(OC(F)F)cc2)(c2cccc(OCCCC(F)(F)F)c2)N=C1N (centres unmarked) [Example 62, 2-amino-5-[4-(difluoromethoxy)phenyl]-3-methyl-5-[3-(4,4,4-trifluorobutoxy)phenyl]-3,5-dihydro-4H-imidazol-4-one] | 82 to 85 °C |
| CN1C(=O)C(c2ccc(OC(F)F)cc2)(c2cccc(CCCCO)c2)N=C1N (centres unmarked) [Example 21, 2-Amino-5-[4-(difluoromethoxy)phenyl]-5-[3-(4-hydroxybutyl)phenyl]-3-methyl-3,5-dihydro-4H-imidazol-4-one] | 63 to 66 °C |
| CN1C(=O)C(c2ccc(OC(F)F)cc2)(c2cccc(CCCCC#N)c2)N=C1N (centres unmarked) [Example 14, 5-(3-{2-Amino-4-[4-(difluoromethoxy)phenyl]-1-methyl-5-oxo-4,5-dihydro-1H-imidazol-4-yl}phenyl)pentanenitrile] | 65 °C |
| CN1C(=O)C(c2ccc(OC(F)F)cc2)(c2cccc(OCCCF)c2)N=C1N (centres unmarked) [Example 59, 2-Amino-5-[4-(difluoromethoxy)phenyl]-5-[3-(3-fluoropropox-1-yl)phenyl]-3-methyl-3,5-dihydro-4H-imidazol-4-one] | 161 to 162 °C |
| CN1C(=O)C(c2ccc(OC(F)F)cc2)(c2cccc(C3CC(=O)C3)c2)N=C1N (centres unmarked) [Example 88, 2-Amino-5-[4-(difluoromethoxy)phenyl]-3-methyl-5-[3-(3-oxocyclobutyl)phenyl]-3,5-dihydro-4H-imidazol-4-one] | 68 to 70 °C |
